# Test results: patent US6395732B1, “Pyrimidin-aminomethyl-pyridine derivatives, their preparation and their use in the control of helicobacter bacteria” (BYK Gulden Lomberg Chemische Fabrik GmbH, priority 1998, dated 2002)
# Tests used:
# Helicobacter pylori = assay: Activity against Helicobacter pylori, agar method of Iwahi et al. (MIC 50); assay type: cell-based; conditions: Columbia agar (Oxoid), growth period of 4 days, approximate values; for MIC50: Helicobacter pylori, 96 h, read-out: Appr. MIC 50
# Source text: The compounds of the formula I were investigated with respect to their activity against Helicobacter pylori following the method described by Tomoyuki Iwahi et al. (Antimicrobial Agents and Chemotherapy, 1991, 490-496) using Columbia agar (Oxoid) and a growth period of 4 days.
MIC50 (Helicobacter pylori) [µg/mL],melting point [°C],Appr. MIC 50 (Helicobacter pylori),SMILES
≤ 0.1,143 to 146,,"Cc1c(OCCCSCCn2c([N+](=O)[O-])cnc2C)ccnc1CNc1ncncc1Cl [Compound 56, (5-Chloro-pyrimidin-4-yl)-(3-methyl-4-{3-[2-(2-methyl-5-nitro-imidazol-1-yl)-ethylsulfanyl]-propoxy}-pyridin-2-ylmethyl)-amine]"
≤ 0.1,142 to 143,,"Cc1nc(C)c(Cl)c(NCc2nccc(SCCCCSCCO)c2C)n1 [Compound 37, 2-(4-{2-[(5-Chloro-2,6-dimethyl-pyrimidin-4-ylamino)-methyl]-3-methyl-pyridin-4-ylsulfanyl}-butylsulfanyl)-ethanol]"
,,≦0.1 μg/ml,Cc1nc(C)c(Cl)c(NCc2nccc(OCCCCSc3ncccn3)c2C)n1 [Compound 6]
≤ 0.1,84 to 86,,"Cc1nc(C)c(Cl)c(NCc2nccc(SCCOCCOCCSCc3ccncc3)c2C)n1 [Compound 43, (5-Chloro-2,6-dimethyl-pyrimidin-4-yl)-[3-methyl-4-(2-{2-[2-(pyridin-4-ylmethylsulfanyl)-ethoxy]-ethoxy}-ethylsulfanyl)-pyridin-2-ylmethyl]-amine]"
≤ 0.1,158 to 159,,"Cc1nc(C)c(Cl)c(NCc2nccc(SCCCSc3ncccn3)c2C)n1 [Compound 10, (5-Chloro-2,6-dimethylpyrimidin-4-yl)-{3-methyl-4-[3-(pyrimidin-2-ylsulfanyl)propylsulfanyl]-pyridin-2-ylmethyl}amine]"
≤ 0.1,92 to 94,,"Cc1nc(C)c(Cl)c(NCc2nccc(SCCCSCC3CCCN(C)C3)c2C)n1 (stereo not shown) [Compound 22, (5-Chloro-2,6-dimethylpyrimidin-4-yl)-{3-methyl-4-[3-(1-methylpiperidin-3-ylmethylsulfanyl)propylsulfanyl]pyridin-2-ylmethyl}amine]"
≤ 0.1,145 to 147,,"Cc1c(OCCSCCn2c([N+](=O)[O-])cnc2C)ccnc1CNc1ncncc1Cl [Compound 49, (5-Chloro-pyrimidin-4-yl)-(3-methyl-4-{2-[2-(2-methyl-5-nitro-imidazol-1-yl)-ethylsulfanyl]-ethoxy}-pyridin-2-ylmethyl)-amine]"
≤ 0.1,158 to 161,,"CN(CCO)c1ccnc(CNc2ncncc2Cl)c1Cl [Compound 55, 2-({3-Chloro-2-[(5-chloro-pyrimidin-4-ylamino)-methyl]-pyridin-4-yl}-methyl-amino)-ethanol]"
≤ 0.1,111 to 113,,"Cc1nc(C)c(Cl)c(NCc2nccc(OCCCSCc3ccncc3)c2C)n1 [Compound 34, (5-Chloro-2,6-dimethyl-pyrimidin-4-yl)-{3-methyl-4-[3-(pyridin-4-ylmethylsulfanyl)-propoxy]-pyridin-2-ylmethyl}-amine]"
≤ 0.1,,,"Cc1nc(C)c(Cl)c(NCCCSc2ccnc(CNc3nc(C)nc(C)c3Cl)c2C)n1 [Compound 7, {4-[3-(5-Chloro-2,6-dimethylpyrimidin-4-ylamino)propylsulfanyl]-3-methylpyridin-2-yl-methyl}-(5-chloro-2,6-dimethylpyrimidin-4-yl)amine]"
≤ 0.1,145 to 147,,"Cc1nc(C)c(Cl)c(NCc2nccc(SCCCSCCn3c([N+](=O)[O-])cnc3C)c2C)n1 [Compound 27, (5-Chloro-2,6-dimethylpyrimidin-4-yl)-(3-methyl-4-{3-[2-(2-methyl-5-nitroimidazol-1-yl)-ethylsulfanyl]propylsulfanyl}pyridin-2-ylmethyl)amine]"
≤ 0.1,114 to 116,,"Cc1nc(C)c(Cl)c(NCc2nccc(OCCOCCSCCO)c2C)n1 [Compound 35, 2-[2-(2-{2-[(5-Chloro-2,6-dimethyl-pyrimidin-4-ylamino)-methyl]-3-methyl-pyridin-4-yloxy}-ethoxy)-ethylsulfanyl]-ethanol]"
≤ 0.1,148 to 149,,"Cc1nc(C)c(Cl)c(NCc2nccc(SCC3CCCN(C)C3)c2C)n1 (stereo not shown) [Compound 44, (5-Chloro-2,6-dimethyl-pyrimidin-4-yl)-[3-methyl-4-(1-methyl-piperidin-3-ylmethylsulfanyl)-pyridin-2-ylmethyl]-amine]"
≤ 0.1,149 to 151,,"Cc1c(SCCCN2CCN(Cc3ccncc3)CC2)ccnc1CNc1ncncc1Cl [Compound 45, (5-Chloro-pyrimidin-4-yl)-{3-methyl-4-[3-(4-pyridin-4-ylmethyl-piperazin-1-yl)-propylsulfanyl]-pyridin-2-ylmethyl}-amine]"
≤ 0.1,169 to 171,,"Cc1nc(C)c(Cl)c(NCc2nccc(OCCCSCCn3c([N+](=O)[O-])cnc3C)c2C)n1 [Compound 33, (5-Chloro-2,6-dimethyl-pyrimidin-4-yl)-(3-methyl-4-{3-[2-(2-methyl-5-nitro-imidazol-1-yl)-ethylsulfanyl]-propoxy}-pyridin-2-ylmethyl)-amine]"
,,≦0.1 μg/ml,"Cc1nc(C)c(Cl)c(NCc2nccc(SCCCSCCO[C@@H]3O[C@H](CO)[C@@H](O)[C@H](O)[C@H]3O)c2C)n1 [Compound 39, 2-(3-{2-[(5-Chloro-2,6-dimethyl-pyrimidin-4-ylamino)-methyl]-3-methyl-pyridin-4-ylsulfanyl}-propylsulfanyl)-β-D-glucopyranoside]"
,162 to 165,,"Cc1nc(C)c(Cl)c(NCc2nccc(CNCCO)c2Cl)n1 [Compound 2, 2-({3-Chloro-2-[(5-chloro-2,6-dimethylpyrimidin-4-ylamino)methyl]pyridin-4-yl}methylamino)ethanol]"
,188 to 190,,Cc1nc(C)c(Cl)c(NCc2nccc(SCCCSc3ncc(-c4ccccc4)[nH]3)c2C)n1.Cl
,,≦0.1 μg/ml,"Cc1nc(C)c(Cl)c(NCc2nccc(SCCCCN3CCN(Cc4ccncc4)CC3)c2C)n1 [Compound 12, (5-Chloro-2,6-dimethylpyrimidin-4-yl)-{3-methyl-4-[4-(4-pyridin-4-ylmethylpiparazin-1-yl)butylsulfanyl]pyridin-2-ylmethyl}amine]"
,81 to 93,,"Cc1nc(C)c(Cl)c(NCc2nccc(N(C)CCN3CCc4ccccc4C3)c2Cl)n1 [Compound 1, (3-Chloro-4-{[2-(3,4-dihydro-1H-isoquinolin-2-yl)ethyl]methylamino}pyridin-2-ylmethyl)-(5-chloro-2,6-dimethylpyrimidin-4-yl)amine]"
,,≦0.1 μg/ml,Cc1nc(C)c(Cl)c(NCc2nccc(OCCCCSCc3cccnc3)c2C)n1 [Compound 50]

SMILES,MIC50 (Helicobacter pylori) [µg/mL],melting point [°C],Appr. MIC 50 (Helicobacter pylori)
"Cc1nc(C)c(Cl)c(NCc2nccc(OCCCCN3CCNCC3)c2C)n1 [Compound 14, (5-Chloro-2,6-dimethylpyrimidin-4-yl)-[3-methyl-4-(4-piperazin-1-ylbutoxy)pyridin-2-ylmethyl]amine]",,140 to 144,
"Cc1nc(C)c(Cl)c(NCc2nccc(OCCCCN3CCN(Cc4ccncc4)CC3)c2C)n1 [Compound 11, (5-Chloro-2,6-dimethylpyrimidin-4-yl)-{3-methyl-4-[4-(4-pyridin-4-ylmethylpiperazin-1-yl)butoxy]pyridin-2-ylmethyl}amine]",,157 to 158,
"Cc1nc(C)c(Cl)c(NCc2nccc(OCCCCSCc3ccncc3)c2C)n1 [Compound 15, (5-Chloro-2,6-dimethylpyrimidin-4-yl)-{3-methyl-4-[4-(piridin-4-ylmethylsulfanyl)-butoxy]pyridin-2-ylmethyl}amine]",,,≦0.1 μg/ml
